Data on 37 compounds can be found in patent publication US20100081661A1, “HEME OXYGENASE INHIBITORS, SCREENING METHODS FOR HEME OXYGENASE INHIBITORS AND METHODS OF USE OF HEME OXYGENASE INHIBITORS FOR ANTIMICROBIAL THERAPY” (UNIVERSITY OF MARYLAND, BALTIMORE, priority 2006, published 2010).

For the assay, the target named is pa-HO (Pseudomonas aeruginosa, UniProt O69002). Format: binding. The settings on record: Table 2; paHO.
pa-HO, sequence (O69002 1-198): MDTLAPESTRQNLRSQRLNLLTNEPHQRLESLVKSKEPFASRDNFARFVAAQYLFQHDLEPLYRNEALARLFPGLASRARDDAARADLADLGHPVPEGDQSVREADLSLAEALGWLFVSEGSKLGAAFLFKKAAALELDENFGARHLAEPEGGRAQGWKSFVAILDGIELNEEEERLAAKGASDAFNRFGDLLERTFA

For the compound `CCc1ccc2[nH]c3nc(N/N=C/c4ccc(O)cc4)nnc3c2c1` [Compound 139], the NMR sat. transfer entry is “Alias: CB-27 fluorescence binding: nd minimum inhibition conc: nd NMR sat. transfer: does not bind paHO”.
As for `O=C(CNc1ccc2ccccc2c1)N/N=C/c1ccccn1` [Compound 10], the NMR sat. transfer result is listed as “Alias: CD-8 fluorescence binding: nd minimum inhibition conc: nd NMR sat. transfer: do not bind paHO”.
Turning to `O=C(O)c1c[nH]c2c(ccc3ccccc32)c1=O` [Compound 52], the NMR sat. transfer entry is on record as “Alias: Spec-2 fluorescence binding: nd minimum inhibition conc: nd NMR sat. transfer: do not bind paHO”.
The result for `CC(C)c1ccc(CN2CCN(CCO)CC2)cc1` [Compound 132] reads “Alias: CB-13 fluorescence binding: nd minimum inhibition conc: nd NMR sat. transfer: tested, ambiguous”.
Regarding `O=C(O)c1ccc2c(c1)-c1nc3ccccc3n1C2=O` [Compound 57], the NMR sat. transfer result is “Alias: CD-4 fluorescence binding: nd minimum inhibition conc: nd NMR sat. transfer: do not bind paHO”.
Take `Cc1ccccc1C(=O)Nc1cc(C(=O)O)cc(C(=O)O)c1` [Compound 6]: the NMR sat. transfer result was “Alias: CB-17 fluorescence binding: nd minimum inhibition conc: nd NMR sat. transfer: binds paHO”.
The result for `O=C(CNC(=O)c1cccnc1)N/N=C/c1ccccn1` [Compound 9] reads “Alias: CD-21 fluorescence binding: nd minimum inhibition conc: nd NMR sat. transfer: do not bind paHO”.
As for `Cc1ccc(NC(=O)c2cnccn2)cc1Cl` [Compound 38], the NMR sat. transfer result is on record as “Alias: CB-24 fluorescence binding: nd minimum inhibition conc: nd NMR sat. transfer: does not bind paHO”.
On to `O=C(O)c1ccc2c(c1)C(=O)N(c1ccc(Cl)cc1)C2=O` [Compound 77], for which the NMR sat. transfer result was “Alias: CB-16 fluorescence binding: nd minimum inhibition conc: nd NMR sat. transfer: binds paHO”.
As for `c1cncc(CNCc2cccnc2)c1` [Compound 64], the NMR sat. transfer entry is given as “Alias: Spec-12 fluorescence binding: nd minimum inhibition conc: nd NMR sat. transfer: do not bind paHO”.
The result for `Cn1c(=N)n(CC(=O)O)c2ccccc21` [Compound 153] reads “Alias: CD-9 fluorescence binding: nd minimum inhibition conc: nd NMR sat. transfer: do not bind paHO”; that for `O=CNc1nonc1NNc1ccccc1` [Compound 144], “Alias: CB-15 fluorescence binding: nd minimum inhibition conc: nd NMR sat. transfer: tested, ambiguous”; that for `C=CCn1c(S)cc2sc3c(c2c1=O)CCN(C)C3` [Compound 128], “Alias: Spec-4 fluorescence binding: nd minimum inhibition conc: nd NMR sat. transfer: do not bind paHO”.
With `COc1cc(/C=N/Cc2ccco2)ccc1O` [Compound 104], the NMR sat. transfer result is recorded as “Alias: CD-13 fluorescence binding: nd minimum inhibition conc: nd NMR sat. transfer: do not bind paHO”.
Turning to `N#CCc1ccc(NC2=NS(=O)(=O)c3ccccc32)cc1` [Compound 56], the NMR sat. transfer entry is on record as “Alias: CD-16 fluorescence binding: nd minimum inhibition conc: nd NMR sat. transfer: do not bind paHO”.
For the compound `N#Cc1ncc(-c2ccccc2)nc1C#N` [Compound 120], the NMR sat. transfer result is on record as “Alias: Spec-15 fluorescence binding: nd minimum inhibition conc: nd NMR sat. transfer: do not bind paHO”.
With `O=C(O)Cn1c(=O)c2cc3c(=O)n(CC(=O)O)c(=O)c3cc2c1=O` [Compound 4], the NMR sat. transfer entry was “Alias: CB-2 fluorescence binding: nd minimum binding conc: nd NMR sat. transfer: do not bind paHO”.
On to `O=C(O)c1cc(-c2cccnc2)nc2ccccc12` [Compound 62], for which the NMR sat. transfer result is “Alias: CB-23 fluorescence binding: nd minimum inhibition conc: nd NMR sat. transfer: does not bind paHO”.
In the case of `O=C(N/N=C/c1ccc(O)cc1O)c1cccnc1` [Compound 11] it was “Alias: CD-20 fluorescence binding: nd minimum inhibition conc: nd NMR sat. transfer: do not bind paHO”.
For `Cc1n[nH]c(Nc2ccccc2F)c1[N+](=O)[O-]` [Compound 20], the NMR sat. transfer result is given as “Alias: CD-6 fluorescence binding: nd minimum inhibition conc: nd NMR sat. transfer: do not bind paHO”.
In the case of `Cc1nc(NCCCC(=O)O)c2ccccc2n1` [Compound 71] it was “Alias: Spec-6 fluorescence binding: nd minimum inhibition conc: nd NMR sat. transfer: do not bind paHO”.
For `O=C(NCc1ccco1)c1cc(C(=O)NCc2ccco2)cc([N+](=O)[O-])c1` [Compound 40], the NMR sat. transfer entry is “Alias: CB-25 fluorescence binding: nd minimum inhibition conc: nd NMR sat. transfer: does not bind paHO”.
As for `Cc1cccc(NC(=O)c2ccc(C(=O)Nc3cccc(C)n3)cc2)n1` [Compound 39], the NMR sat. transfer entry is “Alias: CB-20 fluorescence binding: nd minimum inhibition conc: nd NMR sat. transfer: tested, ambiguous”.
The result for `C(=N\Nc1nc(-c2cccnc2)cs1)/c1cccnc1` [Compound 3] reads “Alias: CB-28 fluorescence binding: nd minimum inhibition conc: nd NMR sat. transfer: does not bind paHO”; that for `NC(=O)c1ccc[n+](-c2ccccc2)c1` [Compound 91], “Alias: Spec-10 fluorescence binding: nd minimum inhibition conc: nd NMR sat. transfer: do not bind paHO”; that for `CN(C)CCN(C)Cc1cccc2ccccc12` [Compound 98], “Alias: CB-12 fluorescence binding: nd minimum inhibition conc: nd NMR sat. transfer: binds paHO”.
In the case of `NC(=O)NC(=O)C[n+]1ccc(C(N)=O)cc1` [Compound 34] it was “Alias: CD-3 fluorescence binding: nd minimum inhibition conc: nd NMR sat. transfer: do not bind paHO”; in that of `Nc1nnnn1/N=C/c1cc2c(cc1[N+](=O)[O-])OCO2` [Compound 143], “Alias: CB-19 fluorescence binding: nd minimum inhibition conc: nd NMR sat. transfer: binds paHO”; in that of `Cc1ccc(CN2CCN(Cc3ccccc3)CC2)cc1` [Compound 80], “Alias: CB-10 fluorescence binding: nd minimum inhibition conc: nd NMR sat. transfer: binds paHO”.
On to `O=C1OC(c2ccccc2)=N/C1=C\Nc1cccc([N+](=O)[O-])c1` [Compound 147], for which the NMR sat. transfer result is “Alias: CB-26 fluorescence binding: nd minimum inhibition conc: nd NMR sat. transfer: does not bind paHO”.
The result for `CN1CCN(CCCn2cnc3c2c(=O)n(C)c(=O)n3C)CC1` [Compound 145] reads “Alias: CB-14 fluorescence binding: nd minimum inhibition conc: nd NMR sat. transfer: tested, ambiguous”; that for `CCN1CCN(CCN)CC1` [Compound 90], “Alias: CD-19 fluorescence binding: nd minimum inhibition conc: nd NMR sat. transfer: do not bind paHO”.
For the compound `O=C(O)c1ccc2c(c1)C(=O)N(CCO)C2=O` [Compound 151], the NMR sat. transfer result is listed as “Alias: CB-8 fluorescence binding: nd minimum inhibition conc: nd NMR sat. transfer: binds paHO”.
The result for `O=C(O)CN1C(=O)c2ccccc2C1=O` [Compound 5] reads “Alias: CB-4 fluorescence binding: nd minimum inhibition conc: nd NMR sat. transfer: binds paHO”; that for `Oc1ccccc1/C=N/Nc1nnn[nH]1` [Compound 140], “Alias: CB-11 fluorescence binding: nd minimum inhibition conc: nd NMR sat. transfer: binds paHO”; that for `C=CCNC(=O)C(=O)Nc1ccc(C(C)C)cc1` [Compound 124], “Alias: CB-30 fluorescence binding: nd minimum inhibition conc: nd NMR sat. transfer: tested, ambiguous”.
Take `COc1ccc(C(=O)COC(=O)/C=C/c2ccccc2)cc1` [Compound 74]: the NMR sat. transfer entry is “Alias: CB-1 fluorescence binding: nd minimum inhibition conc: nd NMR sat. transfer: do not bind paHO”.
